Reference: article PMC12169679 (Journal of Medicinal Chemistry, 2025)

Tests used:
in vitro [1] = conditions: PAMPA, pH 7.4
[2] = PAMPA
VeroE6 cells = conditions: cited from earlier work
[3] = test system: EBOV-GP-pseudotype virus (pEBOV); conditions: cited from earlier work
[4] = test system: wild-type EBOV (Orthoebolavirus zairense, Mayinga variant); conditions: for EC50: read-out: EC50 (EBOV)
[5] = test system: EBOV-GP-pseudotype virus (pEBOV); experiment: microbe, parasite or virus in culture; conditions: Zaire ebolavirus; for inhibition at 10 µM: Vero C1008, read-out: %inh@10 μM (pEBOV); for EC50: Vero C1008, read-out: EC50 (pEBOV)
[6] = test system: EBOV-GP-pseudotype virus (pEBOV)
in vitro [7] = conditions: for CC50: African green monkey; for CC50 at 24 h: chlorocebus sabaeus
[8] = CD-1, mouse, pH 7.4
in vitro [9] = conditions: human, microsomes, pH 7.4
[10] = test system: VSV-G-pseudotype virus (pVSV-G); experiment: microbe, parasite or virus in culture; type: cell-based; conditions: Vesicular stomatitis virus; read-out: %inh@10µM (pVSV-G)
in vitro [11] = conditions: CD-1, mouse, microsomes, pH 7.4
[12] = pH 7.4
[13] = target: EBOV-GPcl/NPC1-domain C interaction (Zaire ebolavirus, UniProt Q05320); type: binding; conditions: 50 μM
EBOV-GP protein = EBOV-GP protein (Zaire ebolavirus, UniProt Q05320); type: binding, Ebola virus

Row | Compound | prediction of CNS penetration [2] | SI (CC50/EC50), replicative EBOV [4] | EC50 [4] [µM] | inhibition at 10 µM [5] [%] | antiviral activity against pEBOV, in words [6] | metabolic stability in mouse liver microsomes CLint [8] [mL/min/mg protein] | EC50 [5] [µM] | half-life at 10 µM (in vitro [9]) [min] | CC50 at 24 h (in vitro [7]) [µM] | inhibition at 10 µM [10] [%] | half-life at 10 µM (in vitro [11]) [min] | metabolic stability in human liver microsomes CLint [12] [mL/min/mg protein] | other results
1 | Cn1c(=O)c2c(ncn2C)n(C)c1=O [Caffeine, reference compound] | CNS− | – | – | – | – | – | – | – | – | – | – | – | Papp (in vitro [1]): 1.5 ± 0.3 ×10⁻⁶ cm/s
2 | CCn1cc(C(=O)O)c(=O)c2cc(F)c(N3CCNCC3)nc21 [Enoxacin, reference compound] | CNS− | – | – | – | – | – | – | – | – | – | – | – | Papp (in vitro [1]): 1.2 ± 0.2 ×10⁻⁶ cm/s
3 | NC(=O)c1nc(F)c[nH]c1=O [Favipiravir, reference compound] | – | – | – | – | – | – | – | – | – | – | – | – | CC50 (VeroE6 cells): > 1000 µM
4 | CN1C(C(=O)Nc2ccccn2)=C(O)c2ccccc2S1(=O)=O [Piroxicam, reference compound] | CNS− | – | – | – | – | – | – | – | – | – | – | – | Pe ([2]; pH 7.4): 1.6 ± 0.7
5 | CN(C)CCCN1c2ccccc2Sc2ccccc21 [Promazine, reference compound] | CNS+ | – | – | – | – | – | – | – | – | – | – | – | Papp (in vitro [1]): 9.1 ± 1.3 ×10⁻⁶ cm/s
6 | O=C(CN1CCCC1)NNc1ccccc1Sc1cc(Cl)ccc1[N+](=O)[O-] [SC073] | SNC + | 18.6 | 4.3 | – | – | – | – | – | – | – | – | – | SI (CC50/EC50) of the hits, pEBOV [3]: 27.5; CC50 (VeroE6 cells): 80 µM
7 | CCN(CC)CC(=O)NNc1ccccc1Sc1cc(Cl)ccc1[N+](=O)[O-] [SC198] | SNC + | 8.3 | 6 | – | – | – | – | – | – | – | – | – | SI (CC50/EC50) of the hits, pEBOV [3]: 12.4; CC50 (VeroE6 cells): 50 µM
8 | O=C(CN1CCCC1)Nc1ccccc1Sc1cc(Cl)ccc1[N+](=O)[O-] [compound 7, N-(2-((5-Chloro-2-nitrophenyl)thio)phenyl)-2-(pyrrolidin-1-yl)acetamide] | – | – | – | -2 | inactive | – | – | – | – | – | – | – | CC50 (in vitro [7]): > 200 µM; EC50 (EBOV) [4]: inactive
9 | CCN(CC)CC(=O)Nc1ccccc1Sc1cc(Cl)ccc1[N+](=O)[O-] [compound 8, N-(2-((5-Chloro-2-nitrophenyl)thio)phenyl)-2-(diethylamino)acetamide] | – | – | – | -5 | inactive | – | – | – | – | – | – | – | CC50 (in vitro [7]): > 200 µM
10 | O=C(CN1CCCCC1)Nc1ccccc1Sc1cc(Cl)ccc1[N+](=O)[O-] [compound 9, N-(2-((5-Chloro-2-nitrophenyl)thio)phenyl)-2-(piperidin-1-yl)acetamide] | – | – | – | -10 | no activity | – | – | – | – | – | – | – | CC50 (in vitro [7]): > 200 µM
11 | O=C(CNCc1ccccc1)Nc1ccccc1Sc1cc(Cl)ccc1[N+](=O)[O-] [compound 10, 2-(Benzylamine)-N-(2-((5-chloro-2-nitrophenyl)thio)phenyl)acetamide] | – | – | – | 18 | no activity | – | – | – | – | – | – | – | CC50 (in vitro [7]): > 200 µM
12 | O=C(CNCCC1CCN(Cc2ccccc2)CC1)Nc1ccccc1Sc1cc(Cl)ccc1[N+](=O)[O-] [compound 11, 2-((2-(1-Benzylpiperidin-4-yl)ethyl)amino)-N-(2-((5-chloro-2-nitrophenyl)thio)phenyl)acetamide] | SNC + | 28.8 | 5.2 | – | – | 390 ± 70 | 5.61 | 23 ± 4 | 150 | 38 | 6 ± 1 | 25 ± 4 | SI (pEBOV) (CC50/EC50) [6]: 26.7
13 | O=C(CCN1CCCC1)Nc1ccccc1Sc1cc(Cl)ccc1[N+](=O)[O-] [compound 12, N-(2-((5-Chloro-2-nitrophenyl)thio)phenyl)-3-(pyrrolidin-1-yl)propanamide] | SNC + | – | – | – | – | 260 ± 80 | 4.9 | 46 ± 2 | 300 | 36 | 10 ± 3 | 12.5 ± 0.6 | SI (pEBOV) (CC50/EC50) [6]: 61.2; EC50 (EBOV) [4]: inactive
14 | CCN(CC)CCC(=O)Nc1ccccc1Sc1cc(Cl)ccc1[N+](=O)[O-] [compound 13, N-(2-((5-Chloro-2-nitrophenyl)thio)phenyl)-3-(diethylamino)propanamide] | SNC + | 3.3 | 44.5 | – | – | 390 ± 60 | 8.87 | 16 ± 3 | 150 | -5 | 6.4 ± 0.9 | 36 ± 8 | SI (pEBOV) (CC50/EC50) [6]: 16.9
15 | O=C(CCNCCc1ccccc1)Nc1ccccc1Sc1cc(Cl)ccc1[N+](=O)[O-] [compound 14, N-(2-((5-Chloro-2-nitrophenyl)thio)phenyl)-3-(phenethylamino)propanamide] | – | – | – | 23 | no activity | – | – | – | – | – | – | – | CC50 (in vitro [7]): > 200 µM
16 | O=C(CCNCCC1CCN(Cc2ccccc2)CC1)Nc1ccccc1Sc1cc(Cl)ccc1[N+](=O)[O-] [compound 15, 3-((2-(1-Benzylpiperidin-4-yl)ethyl)amino)-N-(2-((5-chloro-2-nitrophenyl)thio)phenyl)propanamide] | – | – | – | < 75 | no activity | – | – | – | 9 | – | – | – | –
17 | O=C(CNCCC1CCN(Cc2ccccc2)CC1)Nc1ccccc1Nc1cc(Cl)ccc1[N+](=O)[O-] [compound 16, 2-((2-(1-Benzylpiperidin-4-yl)ethyl)amino)-N-(2-((5-chloro-2-nitrophenyl)amino)phenyl)acetamide] | SNC + | – | 4.42 | – | – | 310 ± 50 | 2.43 | 47 ± 7 | 10 | -44 | 8 ± 1 | 12 ± 2 | effect on binding of EBOV-GP to NPC1 domain C (ELISA) [13]: interferes with the interaction between NPC1 and EBOV-GP; STD-NMR competition with imipramine (EBOV-GP protein): both compounds target the same binding site of EBOV-GP; binding to EBOV-GP by STD-NMR (EBOV-GP protein): binds to the protein; increase in metabolic stability in human microsomes [12]: 105%
18 | O=C(CCN1CCCC1)Nc1ccccc1Nc1cc(Cl)ccc1[N+](=O)[O-] [compound 17, N-(2-((5-Chloro-2-nitrophenyl)amino)phenyl)-3-(pyrrolidin-1-yl)propanamide] | SNC + | 38.5 | 6.48 | – | – | 130 ± 17 | 8.94 | 136.2 ± 0.5 | 250 | -133 | 20 ± 3 | 4.19 ± 0.02 | SI (pEBOV) (CC50/EC50) [6]: 27.9; increase in metabolic stability in human microsomes [12]: 195%
19 | CCN(CC)CCC(=O)Nc1ccccc1Nc1cc(Cl)ccc1[N+](=O)[O-] [compound 18, N-(2-((5-Chloro-2-nitrophenyl)amino)phenyl)-3-(diethylamino)propanamide] | SNC + | 5.2 | 28.7 | – | – | 180 ± 70 | 7.65 | 63 ± 5 | 150 | 9 | 14 ± 6 | 9.1 ± 0.7 | SI (pEBOV) (CC50/EC50) [6]: 19.6; increase in metabolic stability in human microsomes [12]: 294%
20 | O=C(CCNCCc1ccccc1)Nc1ccccc1Nc1cc(Cl)ccc1[N+](=O)[O-] [compound 19, N-(2-((5-Chloro-2-nitrophenyl)amino)phenyl)-3-(phenethylamino)propanamide] | – | – | – | 15 | inactive | – | – | – | 15 | – | – | – | –
